Source: ChEMBL document CHEMBL1777674, “2,6-Disubstituted pyrazines and related analogs as NR2B site antagonists of the NMDA receptor with anti-depressant activity” (Bioorg Med Chem Lett, 2011)
≈ marks a conversion by molar mass, not a printed value.

Legend:
[1] = Equilibrium solubility of the compound at pH 7.4; assay type: physicochemical; settings: buffer
[2] = Intrinsic clearance in human liver microsomes; assay type: ADME, Microsome
[3] = Ratio of drug level in brain to plasma in mouse at 60 mg/kg, ip after 30 mins; assay type: ADME, organism-based; design: dose 60 mg/kg, route intraperitoneal; settings: read-out: BPR
[4] = Plasma concentration in mouse at 60 mg/kg, ip after 30 mins; assay type: ADME, organism-based; design: dose 60 mg/kg, route intraperitoneal
[5] = Plasma concentration in mouse at 10 mg/kg, ip after 30 mins; assay type: ADME, organism-based; design: dose 10 mg/kg, route intraperitoneal
[6] = Ratio of drug level in brain to plasma in mouse at 30 mg/kg, ip after 30 mins; assay type: ADME, organism-based; design: dose 30 mg/kg, route intraperitoneal; settings: read-out: BPR
[7] = Ratio of drug level in brain to plasma in mouse at 10 mg/kg, ip after 30 mins; assay type: ADME, organism-based; design: dose 10 mg/kg, route intraperitoneal; settings: read-out: BPR
[8] = Plasma concentration in mouse at 30 mg/kg, ip after 30 mins; assay type: ADME, organism-based; design: dose 30 mg/kg, route intraperitoneal

Which solubility thermodynamic [1] does the source give for `COc1cc(F)ccc1-c1cncc(CNCC2CC2)n1` here?
Its solubility thermodynamic is 340 µM (≈ 97.7 µg/mL).

And the microsomal CLint [2]?
Its microsomal CLint is 108 µL/min/mg.

With `COc1cc(F)ccc1-c1cncc(CNC2CCCC2)c1` as the compound, how does the solubility thermodynamic [1] read?
The solubility thermodynamic was over 450 µM.

And the Kp at 0.5 h [3]?
The Kp at 0.5 h was 12.6.

What about the concentration at 0.5 h [4] of the same compound?
Its concentration at 0.5 h is 3370 nM.

And the concentration at 0.5 h [5]?
Its concentration at 0.5 h is 867 nM.

And the microsomal CLint [2]?
Its microsomal CLint is 74 µL/min/mg.

And the Kp at 0.5 h [6]?
The Kp at 0.5 h was 13.6.

And the Kp at 0.5 h [7]?
The Kp at 0.5 h was 10.9.

What about the concentration at 0.5 h [8] of the same compound?
The concentration at 0.5 h was 2320 nM.

Which results are given for `COc1cc(F)ccc1-c1cncc(CNC(=O)c2cnccn2)c1`?
solubility thermodynamic [1]: 63 µM (≈ 21.3 µg/mL); microsomal CLint [2]: 64 µL/min/mg

Which microsomal CLint [2] does the source give for `COc1cc(F)ccc1-c1cncc(CNC(=O)c2ccccn2)c1` here?
The microsomal CLint was 45 µL/min/mg.

With `C[C@@H]([C@@H](O)c1ccc(O)cc1)N1CCC(O)(c2ccccc2)CC1` [TRAXOPRODIL] as the compound, how does the solubility thermodynamic [1] read?
The solubility thermodynamic was over 470 µM.

And the microsomal CLint [2]?
The microsomal CLint was 37 µL/min/mg.
